# Patent US20070248597A1, “Methods of decreasing vascular calcification using IL-1 inhibitors” (priority 2005, published 2007)
# Assays:
# Format in all cases: in vivo, rat
# 5/6 nx uremic rats = experiment: Aortic calcification (Von Kossa, pathologist score) in 5/6-nephrectomy model of CKD and secondary HPT; details: for aortic calcification severity (Von Kossa calcification score): 5/6Nx male SD rats, uremia established 8 weeks, treatment week 4, Fc-IL-1ra 100 mg/kg/day s.c., calcitriol 30 ng
# Text: We administered the IL-1 receptor antagonist Fc-IL-1ra, calcitriol, the combination of Fc-IL-1ra+calcitriol) or their corresponding vehicles to a rodent animal model of chronic kidney disease (CKD) and secondary hyperparathyroidism (SHPT) induced by subtotal nephrectomy (5/6Nx). The experimental paradigm is shown in FIG. 5, with the treatment groups set out in Table 2 below.
# Aortas were removed at treatment week 4 (trt wk4), fixed and stained for mineralization (Von Kossa) and the severity determined and scored by a pathologist blinded to the treatments (Calcification Scores: 0=no calcification; 1=minimal; 2=mild; 3=moderate; 4=marked; 5=severe).
# [1] = test system: adenine-induced CKD/SHPT rats; experiment: Blood chemistry (BUN, creatinine, PTH) in adenine model of CKD/SHPT
# Experimental: (§1) Adenine, included as a dietary supplement (0.75%), was fed to adult, male Sprague-Dawley rats. Blood for chemistry analyses (total serum calcium, phosphorous, blood urea nitrogen [BUN], creatinine, PTH) was collected before and again on drug treatment days 0 (pretreatment) and 21 from the retro-orbital sinus of anesthetized rats. Blood (0.5 ml) was collected for PTH levels into SST (clot activator) brand blood tubes and allowed to clot. Serum was removed and stored at −70° C. until assayed. PTH levels were quantified according to the vendor's instructions using rat PTH (1-34) immunoradiometric assay kit (Immutopics, San Clemente, Calif.). Calcium and phosphorous were measured using a blood chemistry analyzer (AU 400; Olympus, Melville, N.Y.).
# [2] = test system: adenine-induced CKD/SHPT rats; experiment: Aortic vascular calcification (bone mineral density of isolated aortas, Dxa scanner) in adenine model of CKD/SHPT
# Experimental: as §1
# Vascular calcification was assessed by quantifying the bone mineral density from fixed (formalin, PBS), isolated aortas using a Dxa scanner (Piximus densitomer, GE Healthcare).
# [3] = test system: adenine-induced CKD/SHPT rats; experiment: Parathyroid gland size in adenine model of CKD/SHPT; details: FIG. 3A, p=0.009 vs A5S vehicle (n=13 vs n=8)
Molecule,aortic calcification severity (Von Kossa calcification score) (5/6 nx uremic rats),"incidence of severe calcification (5/6 nx uremic rats; 5/6Nx uremic rats, treatment week 4, n=8 evaluated) [%]",BUN [1],creatinine levels [1],"serum PTH levels ([1]; FIG. 3B, p=0.028 vs A5S vehicle (n=7 vs n=4))","bone mineral density (aortic calcification) ([2]; adenine diet 0.75%, male Sprague-Dawley rats, Fc-IL-1ra n=7 vs A5S vehicle n=4, p=0.005 unpaired t-test) [g/cm2]","development of aortic vascular calcification (bone mineral density content of the aorta) ([2]; adenine model, FIG. 2)","animals with no calcification ([2]; adenine model, Fc-IL-1ra-treated animals)",size of the parathyroid gland [3],"calcitriol (Vitamin D3)-induced aortic vascular calcification (5/6 nx uremic rats; 5/6Nx rats, Fc-IL-1ra 100 mg/kg/day s.c. + calcitriol 30 ng, week 4, FIG. 6)"
"C=C1/C(=C\C=C2/CCC[C@]3(C)[C@@H]([C@H](C)CCCC(C)(C)O)CC[C@@H]23)C[C@@H](O)C[C@@H]1O [calcitriol, 1α, 25-dihydroxycholecalciferol, reference compound]",marked to severe,50,,,,,,,,
Fc-IL-1ra: molecule having the sequence shown in FIG. 4 (SEQ ID NO: 1); fusion protein comprising IL-1ra; IL-1 receptor antagonist,did not cause vascular calcification,,did not affect,did not affect,decreased,0,prevented,seven of seven,reduced,attenuated
